Test results reported in paper PMC8745332, “Synthesis, Molecular Docking and Biological Characterization of Pyrazine Linked 2-Aminobenzamides as New Class I Selective Histone Deacetylase (HDAC) Inhibitors with Anti-Leukemic Activity” (International Journal of Molecular Sciences, 2021).
Like-named read-outs stand apart in the source and are kept apart here.

Assays:
in vitro = conditions: human, HEK293 cells
Experimental: The cells were incubated for 48 h with the HDACi at a concentration of 50 µM, and cell viability was determined by the Alamar Blue assay.
To determine the cytotoxicity of the developed compounds on the human epithelial kidney, cell line HEK293 was used. HEK293 cells (DSMZ Braunschweig, ACC305) were incubated at 37 °C in a humidified incubator with 5% CO2 in Dulbecco’s Modified Eagle Medium (DMEM) supplemented with 10% FCS and 5 mM glutamine. Cells were seeded out at 1.5 x 10^3 cells per well in a 96-well cell culture plate (TPP, Switzerland). The compounds to be tested were added immediately to the medium at 50 µM. After 24 h, Alamar Blue reagent (Invitrogen, CA) was added according to the manufacturer’s instructions and incubated again for 21 h before samples were analyzed. Detection of viable cells which convert the resazurine reagent into the highly fluorescent resorufin was performed by using a FLUOstarOPTIMA microplate reader (BMG Labtec) with the following filter set: Ex 530 nm/Em 590 nm. Measurements were performed in triplicate and data are means with standard deviation <12%.

human HDAC7 = biological target: T1, human HDAC7 (Homo sapiens, UniProt Q8WUI4); test: HDAC7 dose response, substrate Abz-SRGGK(thio-TFA)FFRR-NH2; assay type: biochemical
T1 construct: made in house
T1 sequence (Q8WUI4 1-952): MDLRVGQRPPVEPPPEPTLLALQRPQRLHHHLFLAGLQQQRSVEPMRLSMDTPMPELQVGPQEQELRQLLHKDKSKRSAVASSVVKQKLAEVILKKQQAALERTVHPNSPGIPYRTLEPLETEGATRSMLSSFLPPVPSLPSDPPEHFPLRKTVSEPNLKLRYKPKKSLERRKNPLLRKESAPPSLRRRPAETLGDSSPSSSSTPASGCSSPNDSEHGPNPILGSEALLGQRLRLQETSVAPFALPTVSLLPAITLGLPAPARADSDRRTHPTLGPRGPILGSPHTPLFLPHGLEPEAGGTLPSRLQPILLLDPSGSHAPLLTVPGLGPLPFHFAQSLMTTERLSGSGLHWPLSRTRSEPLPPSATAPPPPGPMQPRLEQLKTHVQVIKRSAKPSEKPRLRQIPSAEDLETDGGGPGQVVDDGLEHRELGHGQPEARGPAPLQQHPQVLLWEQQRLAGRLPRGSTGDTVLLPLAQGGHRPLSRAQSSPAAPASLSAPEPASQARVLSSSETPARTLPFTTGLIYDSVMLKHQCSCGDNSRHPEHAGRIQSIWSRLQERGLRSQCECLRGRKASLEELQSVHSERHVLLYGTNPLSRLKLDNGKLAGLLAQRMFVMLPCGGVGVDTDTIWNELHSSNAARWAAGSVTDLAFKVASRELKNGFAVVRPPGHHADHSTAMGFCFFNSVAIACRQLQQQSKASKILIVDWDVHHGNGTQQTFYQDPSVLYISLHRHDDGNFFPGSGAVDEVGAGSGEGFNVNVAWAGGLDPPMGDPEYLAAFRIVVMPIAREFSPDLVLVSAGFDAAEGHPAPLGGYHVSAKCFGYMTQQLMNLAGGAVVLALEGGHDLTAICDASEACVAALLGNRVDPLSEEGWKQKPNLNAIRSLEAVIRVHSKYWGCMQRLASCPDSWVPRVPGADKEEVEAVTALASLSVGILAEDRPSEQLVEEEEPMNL
Experimental: (§1) Recombinant human HDAC1, HDAC2, and HDAC3/NCOR1 were purchased from ENZO Life Sciences AG (Lausen, CH). Recombinant human HDAC 4, HDAC5, HDAC7, HDAC9 and HDAC11 were produced by Barinka lab in Prague, as described before. Recombinant human HDAC8 was produced by Romier et al. (IGBMC, Univ. Strasbourg), as described in [55].
(§2) The determination of dose response curves for HDAC4, 5, 7 and 9 was performed as previously described with compound 4 as substrate (Abz-SRGGK(thio-TFA)FFRR-NH2). The substrate concentration was 50 µM and the enzyme concentration was 10 nM for HDAC4 and HDAC5, 5 nM for HDAC7 and 20 nM for HDAC9. HDAC11 inhibition assay was performed as described before. The fluorescence intensity was recorded with an Envision 2104 Multilabel Plate Reader (PerkinElmer, Waltham, MA) with an excitation wavelength of 330 ± 75 nm and an emission wavelength of 430 ± 8 nm.

human HDAC11 = biological target: T2, human HDAC11 (Homo sapiens, UniProt Q96DB2); test: HDAC11 inhibition assay; assay type: biochemical
T2 construct: made in house
T2 sequence (Q96DB2 1-347): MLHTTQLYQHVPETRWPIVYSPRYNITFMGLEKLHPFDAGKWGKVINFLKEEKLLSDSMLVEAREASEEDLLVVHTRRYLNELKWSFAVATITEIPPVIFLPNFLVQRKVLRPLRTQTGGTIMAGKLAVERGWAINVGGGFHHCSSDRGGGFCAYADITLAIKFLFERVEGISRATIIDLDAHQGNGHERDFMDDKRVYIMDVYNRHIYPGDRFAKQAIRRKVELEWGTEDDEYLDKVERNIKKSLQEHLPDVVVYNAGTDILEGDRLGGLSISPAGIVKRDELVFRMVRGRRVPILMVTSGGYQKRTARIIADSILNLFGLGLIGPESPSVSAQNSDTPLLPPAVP
Experimental: as §1, §2

human HDAC4 = biological target: T3, human HDAC4 (Homo sapiens, UniProt P56524); test: HDAC4 dose response, substrate Abz-SRGGK(thio-TFA)FFRR-NH2; assay type: biochemical
T3 construct: made in house
Experimental: as §1, §2

human HDAC2 = biological target: T4, human HDAC2 (Homo sapiens, UniProt Q92769); test: In vitro HDAC2 inhibition assay, fluorogenic p53 peptide Ac-RHKK(Acetyl)-AMC; assay type: biochemical; conditions: 3 nM HDAC2, 20 µM substrate, 30 min, 37 °C
T4 construct: purchased ENZO Life Sciences AG (Lausen, CH)
Experimental: as §1
(§3) The in vitro testing on recombinant HDACs 1-3 were performed with a fluorogenic peptide derived from p53 (Ac-RHKK(Acetyl)-AMC). The measurements were performed in an assay buffer (50 mM Hepes, 150 mM NaCl, 5 mM MgCl2, 1 mM TCEP and 0.2 mg/mL BSA, pH 7.4 adjusted with NaOH) at 37 °C. Inhibitors at different concentrations were incubated with 10 nM HDAC1, 3 nM HDAC2 or 3 nM HDAC3 (final concentration) for at least 5 min. The reaction was started with the addition of the fluorogenic substrate (20 µM final concentration) and incubated for 30 min for HDAC2 and HDAC3 and 90 min for HDAC1. The reaction was stopped with a solution of 1 mg/mL trypsin and 20 µM SAHA in 1 mM HCl and incubated for 1 h at 37 °C. […] The received fluorescence intensities were normalized with uninhibited reaction as 100% and the reaction without enzyme as 0%. A nonlinear regression analysis was done to determine the IC50 value.

human HDAC5 = biological target: T5, human HDAC5 (Homo sapiens, UniProt Q9UQL6); test: HDAC5 dose response, substrate Abz-SRGGK(thio-TFA)FFRR-NH2; assay type: biochemical
T5 construct: made in house
Experimental: as §1, §2

MV4-11 cells = test: Apoptosis in MV4-11 cells, annexin-V-FITC/PI flow cytometry; assay type: cell-based, human; conditions: for IC50: Homo sapiens; for induction of early and late apoptosis: 0.5 µM, 48 h
Experimental: We measured the induction of early (increased exposure of phosphatidylserine on the cell surface and therefore positive staining for annexin-V-FITC) and late apoptosis (positivity for annexin-V and accumulation of propidium iodide, PI) by flow cytometry.
All leukemic cells were kept in RPMI-1640 medium supplemented with 10% FBS and 1%penicillin/streptomycin (Sigma-Aldrich, Taufkirchen, Germany) under standard culture conditions at 37 °C and a 5% CO2 humidified atmosphere. Cells were authenticated as mentioned by us.

human HDAC9 = biological target: T6, human HDAC9 (Homo sapiens, UniProt Q9UKV0); test: HDAC9 dose response, substrate Abz-SRGGK(thio-TFA)FFRR-NH2; assay type: biochemical
T6 construct: made in house
Experimental: as §1, §2

human HDAC1 = biological target: T7, human HDAC1 (Homo sapiens, UniProt Q13547); test: In vitro HDAC1 inhibition assay, fluorogenic p53 peptide Ac-RHKK(Acetyl)-AMC; assay type: biochemical; conditions: 10 nM HDAC1, 20 µM substrate, 90 min, 37 °C
T7 construct: purchased ENZO Life Sciences AG (Lausen, CH)
Experimental: as §1, §3

T4 sequence (Q92769 whole entry): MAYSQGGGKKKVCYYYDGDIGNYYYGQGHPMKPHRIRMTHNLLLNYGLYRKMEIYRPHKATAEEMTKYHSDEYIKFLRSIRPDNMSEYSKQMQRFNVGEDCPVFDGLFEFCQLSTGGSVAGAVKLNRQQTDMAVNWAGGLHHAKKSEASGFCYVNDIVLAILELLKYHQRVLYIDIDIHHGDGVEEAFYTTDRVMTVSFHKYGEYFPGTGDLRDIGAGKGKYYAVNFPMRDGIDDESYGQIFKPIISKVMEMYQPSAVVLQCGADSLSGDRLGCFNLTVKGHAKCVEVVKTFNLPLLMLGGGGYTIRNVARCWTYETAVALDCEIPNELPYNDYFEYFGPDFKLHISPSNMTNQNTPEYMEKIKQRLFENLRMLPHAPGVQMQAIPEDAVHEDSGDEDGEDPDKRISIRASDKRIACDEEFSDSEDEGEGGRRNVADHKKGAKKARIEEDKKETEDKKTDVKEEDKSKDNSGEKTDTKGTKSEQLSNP
T3 sequence (P56524 whole entry): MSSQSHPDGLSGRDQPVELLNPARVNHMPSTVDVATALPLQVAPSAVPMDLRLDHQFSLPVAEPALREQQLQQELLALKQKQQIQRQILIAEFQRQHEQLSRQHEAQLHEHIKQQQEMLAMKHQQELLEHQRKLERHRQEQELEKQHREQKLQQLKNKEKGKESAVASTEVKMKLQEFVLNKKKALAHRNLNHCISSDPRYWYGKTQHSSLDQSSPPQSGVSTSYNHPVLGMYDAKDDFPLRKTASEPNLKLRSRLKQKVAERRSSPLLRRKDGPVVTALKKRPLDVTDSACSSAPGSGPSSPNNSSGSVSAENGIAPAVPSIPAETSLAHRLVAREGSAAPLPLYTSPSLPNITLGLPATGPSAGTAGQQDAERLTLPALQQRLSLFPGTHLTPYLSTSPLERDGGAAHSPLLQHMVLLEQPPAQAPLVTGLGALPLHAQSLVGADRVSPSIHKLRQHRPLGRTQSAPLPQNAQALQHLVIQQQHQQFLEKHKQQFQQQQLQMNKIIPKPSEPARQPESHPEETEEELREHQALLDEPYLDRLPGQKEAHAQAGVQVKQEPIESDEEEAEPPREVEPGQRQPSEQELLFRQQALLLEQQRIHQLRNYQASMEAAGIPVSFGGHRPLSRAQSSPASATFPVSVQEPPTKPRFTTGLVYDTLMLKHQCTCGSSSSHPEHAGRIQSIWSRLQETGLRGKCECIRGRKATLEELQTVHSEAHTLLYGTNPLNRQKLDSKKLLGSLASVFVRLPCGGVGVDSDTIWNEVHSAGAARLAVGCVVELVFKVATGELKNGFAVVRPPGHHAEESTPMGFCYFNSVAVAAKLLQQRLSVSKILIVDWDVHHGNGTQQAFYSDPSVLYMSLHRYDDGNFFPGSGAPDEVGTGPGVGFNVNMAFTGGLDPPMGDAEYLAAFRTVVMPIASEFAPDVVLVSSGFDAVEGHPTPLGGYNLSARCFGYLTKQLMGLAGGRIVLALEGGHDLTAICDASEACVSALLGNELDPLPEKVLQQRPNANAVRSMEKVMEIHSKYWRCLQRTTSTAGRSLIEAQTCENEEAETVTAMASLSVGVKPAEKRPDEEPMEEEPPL
T7 sequence (Q13547 whole entry): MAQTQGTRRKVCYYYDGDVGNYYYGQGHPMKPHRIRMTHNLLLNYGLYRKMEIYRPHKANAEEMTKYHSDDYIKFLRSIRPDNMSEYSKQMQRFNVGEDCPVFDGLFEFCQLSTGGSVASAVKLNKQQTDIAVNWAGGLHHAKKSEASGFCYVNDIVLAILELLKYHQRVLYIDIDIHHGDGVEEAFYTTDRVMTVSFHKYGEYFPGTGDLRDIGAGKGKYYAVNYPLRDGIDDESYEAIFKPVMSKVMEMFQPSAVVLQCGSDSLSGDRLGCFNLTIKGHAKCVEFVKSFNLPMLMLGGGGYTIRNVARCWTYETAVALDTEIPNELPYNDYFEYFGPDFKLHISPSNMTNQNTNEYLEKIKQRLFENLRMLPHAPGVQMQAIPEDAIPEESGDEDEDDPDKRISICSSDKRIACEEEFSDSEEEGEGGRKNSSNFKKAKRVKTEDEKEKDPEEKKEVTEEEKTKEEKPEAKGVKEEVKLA
T5 sequence (Q9UQL6 whole entry): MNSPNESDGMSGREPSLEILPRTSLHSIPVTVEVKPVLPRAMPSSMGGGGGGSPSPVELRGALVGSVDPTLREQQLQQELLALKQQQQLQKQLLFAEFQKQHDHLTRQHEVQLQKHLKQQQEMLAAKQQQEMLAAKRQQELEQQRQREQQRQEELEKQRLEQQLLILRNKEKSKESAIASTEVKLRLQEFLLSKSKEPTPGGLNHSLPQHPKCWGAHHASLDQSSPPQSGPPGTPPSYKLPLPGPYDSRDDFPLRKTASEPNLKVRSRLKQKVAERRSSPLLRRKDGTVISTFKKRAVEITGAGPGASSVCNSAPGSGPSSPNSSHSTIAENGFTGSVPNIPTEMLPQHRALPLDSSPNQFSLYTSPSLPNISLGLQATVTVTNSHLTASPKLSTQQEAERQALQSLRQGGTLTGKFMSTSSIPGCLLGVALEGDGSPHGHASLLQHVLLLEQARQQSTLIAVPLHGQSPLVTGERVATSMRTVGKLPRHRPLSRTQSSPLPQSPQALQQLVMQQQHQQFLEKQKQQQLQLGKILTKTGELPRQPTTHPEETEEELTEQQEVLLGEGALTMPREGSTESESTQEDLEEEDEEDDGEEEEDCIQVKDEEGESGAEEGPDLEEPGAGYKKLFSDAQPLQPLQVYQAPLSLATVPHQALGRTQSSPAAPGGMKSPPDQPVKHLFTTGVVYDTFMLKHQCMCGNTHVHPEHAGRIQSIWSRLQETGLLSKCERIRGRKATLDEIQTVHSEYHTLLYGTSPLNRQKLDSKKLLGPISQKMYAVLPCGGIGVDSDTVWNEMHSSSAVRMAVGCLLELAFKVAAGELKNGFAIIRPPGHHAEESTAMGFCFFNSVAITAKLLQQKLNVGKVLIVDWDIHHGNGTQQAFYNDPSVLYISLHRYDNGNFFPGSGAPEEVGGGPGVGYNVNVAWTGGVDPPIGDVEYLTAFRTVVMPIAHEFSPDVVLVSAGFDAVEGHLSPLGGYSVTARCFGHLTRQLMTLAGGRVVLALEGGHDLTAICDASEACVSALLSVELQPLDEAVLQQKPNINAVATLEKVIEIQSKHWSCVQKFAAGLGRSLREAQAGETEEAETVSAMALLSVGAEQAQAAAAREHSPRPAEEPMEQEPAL
T6 sequence (Q9UKV0 whole entry): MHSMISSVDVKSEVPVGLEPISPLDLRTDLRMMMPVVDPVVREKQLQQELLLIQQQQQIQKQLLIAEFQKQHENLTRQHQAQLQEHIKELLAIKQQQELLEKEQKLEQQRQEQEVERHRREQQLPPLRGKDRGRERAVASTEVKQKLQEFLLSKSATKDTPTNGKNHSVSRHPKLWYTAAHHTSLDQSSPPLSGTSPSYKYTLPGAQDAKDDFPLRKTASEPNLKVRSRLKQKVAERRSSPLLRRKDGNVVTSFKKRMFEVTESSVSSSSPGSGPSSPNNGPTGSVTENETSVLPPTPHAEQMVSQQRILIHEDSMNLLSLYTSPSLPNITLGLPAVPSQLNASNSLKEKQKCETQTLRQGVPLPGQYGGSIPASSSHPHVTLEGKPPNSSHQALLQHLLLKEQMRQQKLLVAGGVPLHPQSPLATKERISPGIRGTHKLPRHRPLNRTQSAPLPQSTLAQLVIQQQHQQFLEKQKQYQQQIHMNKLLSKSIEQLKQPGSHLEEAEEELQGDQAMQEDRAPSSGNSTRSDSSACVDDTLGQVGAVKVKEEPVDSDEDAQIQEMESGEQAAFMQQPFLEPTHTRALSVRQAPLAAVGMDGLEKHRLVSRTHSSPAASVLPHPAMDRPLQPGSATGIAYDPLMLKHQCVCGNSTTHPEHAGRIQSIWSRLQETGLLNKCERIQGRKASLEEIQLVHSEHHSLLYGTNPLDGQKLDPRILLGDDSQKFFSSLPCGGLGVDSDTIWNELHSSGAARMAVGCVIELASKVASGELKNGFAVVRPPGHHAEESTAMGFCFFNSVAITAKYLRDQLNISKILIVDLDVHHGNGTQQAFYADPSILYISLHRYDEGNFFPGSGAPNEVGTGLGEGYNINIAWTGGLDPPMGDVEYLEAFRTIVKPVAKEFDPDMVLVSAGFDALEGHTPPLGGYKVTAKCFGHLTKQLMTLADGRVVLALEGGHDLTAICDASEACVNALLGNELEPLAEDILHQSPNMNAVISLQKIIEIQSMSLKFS

Row | Compound | viability at 48 h, 50 µM (in vitro) [%] | IC50 (human HDAC7) [µM] | IC50 (human HDAC11) [µM] | IC50 (human HDAC4) [µM] | IC50 (human HDAC2) [µM] | IC50 (human HDAC5) [µM] | IC50 (MV4-11 cells; MV4-11, 48 h, read-out: IC50 (apoptosis, annexin-V/PI)) [µM] | IC50 (MV4-11 cells; MV4-11 cells, 24 h, annexin-V/PI, read-out: IC50 for apoptosis induction) [µM] | IC50 (MV4-11 cells; MV4-11 cells, after 48 h, read-out: IC50 values for growth inhibition) [µM] | induction of early and late apoptosis (MV4-11 cells; MV4-11 cells) | fold more effective than MS-275 (apoptosis induction) (MV4-11 cells; MV4-11 cells, versus MS-275) | IC50 (human HDAC9) [µM] | IC50 (human HDAC1) [µM]
1 | Nc1ccccc1NC(=O)c1cnc(N2CCN(Cc3c[nH]c4ccccc34)CC2)cn1 [19f, 5-(4-((1H-indol-3-yl)methyl)piperazin-1-yl)-N-(2-aminophenyl)pyrazine-2-carboxamide] | 76.1 | > 20 | > 20 | > 20 | 0.28 ± 0.01 | > 20 | 0.194 | 0.255 | ~0.3 | early and late apoptosis in nearly the whole MV4-11 cell population | at least 4 fold | > 20 | 0.13 ± 0.01
2 | Cn1cc(CCN2CCN(c3cnc(C(=O)Nc4cc(-c5cccs5)ccc4N)cn3)CC2)c2ccccc21 [21a, N-(2-Amino-5-(thiophen-2-yl)phenyl)-5-(4-(2-(1-methyl-1H-indol-3-yl)ethyl)piperazin-1-yl)pyrazine-2-carboxamide] | 94.4 | > 20 | 7.5 ± 1 | > 20 | 2.47 ± 0.22 | > 20 |  |  |  | slightly increased the number of MV4-11 cells in late apoptosis |  | > 20 | 0.26 ± 0.01
